The record followed here is US20190275012A9, “SUBSTITUTED THIAZOLO-PYRIDINE COMPOUNDS AS MALT1 INHIBITORS” (Lupin Limited, priority 2016, published 2019).

The test system of assay [1] is NF-kB transcriptional activity in HEK-293-NF-kB-Luc cell line overexpressing MALT1. Nature of the assay: NF-kB reporter assay (luciferase, MALT1 stably overexpressed). Type of assay: cell-based. Conditions: Homo sapiens, 24 h, HEK-293-NF-kB-Luc cells stably overexpressing MALT1, 24 h treatment, Bright Glo luminescence; read-out: NF-kB inhibition IC50. In short, it runs like this:
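HEK-293-NF-κB-Luc cells stably overexpressing MALT1 were seeded overnight, then exposed to test compounds for 24 h. Bright Glo added 10 min at ambient temperature and luminescence read; % inhibition calculated against 0.1% DMSO controls.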
On the technique in general: In a reporter assay the amount or activity of a reporter protein is the signal.

Another assay deals with OCI-Ly-10 cells. Nature of the assay: Anticancer assay (14 days), cell viability by CCK-8. Type of assay: cell-based. Conditions: Homo sapiens, OCI-Ly10, 336 h, 14 days treatment, fresh treatment every 5th day, CCK-8 viability, read-out: Ly-10 (14d) inhibition IC50. Here is the method: OCI-Ly-10 cells (UHN, Canada) seeded in culture media (IMDM+20% FBS) in 96-well plates were treated with various concentrations of the test compounds. Cells were treated for a period of 14 days (13-15 days depending on the confluency of cells) with fresh treatments every 5th day. After the first treatment, for all subsequent treatments, the cells were centrifuged, the spent media was removed and fresh media containing the test compound was added. Cell viability was assessed using CCK-8 kit (Dojindo Laboratories, China) as per manufacturer's instructions. Plates were read in colorimeter and absorbance was detected. (Detection at 450 nm; Background correction at 650 nm). % inhibition was calculated relative to the samples containing media with 0.1% DMSO alone as per the following formula

For the next assay, the target named is T1, full length MALT1 enzyme (Homo sapiens, UniProt Q9UDY8).
T1 construct: a fluorescence based assay with full length MALT1 enzyme
T1 sequence (Q9UDY8 1-824): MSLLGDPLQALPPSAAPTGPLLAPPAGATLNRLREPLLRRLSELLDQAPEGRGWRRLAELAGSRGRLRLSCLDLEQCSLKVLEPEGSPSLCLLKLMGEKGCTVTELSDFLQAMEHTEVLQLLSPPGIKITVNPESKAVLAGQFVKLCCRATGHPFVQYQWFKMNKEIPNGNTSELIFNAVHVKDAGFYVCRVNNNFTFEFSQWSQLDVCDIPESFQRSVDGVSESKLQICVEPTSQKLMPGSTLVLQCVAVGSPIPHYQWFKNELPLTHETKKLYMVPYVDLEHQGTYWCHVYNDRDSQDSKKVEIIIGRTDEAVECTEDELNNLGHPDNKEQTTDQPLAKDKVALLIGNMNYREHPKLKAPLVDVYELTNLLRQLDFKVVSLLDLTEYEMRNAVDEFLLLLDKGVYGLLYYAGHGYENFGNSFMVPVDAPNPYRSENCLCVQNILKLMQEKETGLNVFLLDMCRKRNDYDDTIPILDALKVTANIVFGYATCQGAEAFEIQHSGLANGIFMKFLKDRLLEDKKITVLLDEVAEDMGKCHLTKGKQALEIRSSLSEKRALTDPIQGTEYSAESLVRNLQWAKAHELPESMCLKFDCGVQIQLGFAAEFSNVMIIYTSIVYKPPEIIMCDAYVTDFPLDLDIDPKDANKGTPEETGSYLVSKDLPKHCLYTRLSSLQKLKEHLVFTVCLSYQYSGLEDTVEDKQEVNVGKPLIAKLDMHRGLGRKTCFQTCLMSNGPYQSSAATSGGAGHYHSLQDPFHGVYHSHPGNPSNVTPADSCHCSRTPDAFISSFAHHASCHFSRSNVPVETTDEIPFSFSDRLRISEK
Nature of the assay: MALT1 biochemical assay (fluorescence based, Ac-Leu-Arg-Ser-Arg-AMC cleavage). Conditions: full length MALT1 protein, 2 h pre-incubation at RT, tetrapeptide substrate Ac-Leu-Arg-Ser-Arg-AMC, read-out: Malt 1 inhibition IC50. In short, it runs like this:
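Full-length MALT1 (100-300 ng/well) was pre-incubated with compound for 2 h at RT, then 100 μM Ac-LRSR-AMC was added for 4-12 h. Buffer was 50 mM MES, 150 mM NaCl, 0.1% CHAPS, 1 M ammonium citrate, 10 mM DTT, pH 7, with 0.5% DMSO. IC50 was derived from AMC fluorescence (ex 360/em 460 nm).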

As to `Cc1nc2c(C3CCCO3)c(NC(=O)Nc3cnc(-n4nccn4)c(Cl)c3)cnc2s1` (single isomer, unassigned) [Compound 136b, 1-(5-Chloro-6-(2H-1,2,3-triazol-2-yl)pyridin-3-yl)-3-(2-methyl-7-(tetrahydrofuran-2-yl)thiazolo[5,4-b]pyridin-6-yl)urea], the IC50 (as a rule, the midpoint of a concentration-inhibition curve) in assay [1] was in the range of 1 to 100 nM; with OCI-Ly-10 cells, 101 to 250 nM. With `Cc1nc2c(N(C)CC3CC3)c(NC(=O)Nc3cnc(-n4nccn4)c(Cl)c3)cnc2s1` [Compound 42, 1-(5-Chloro-6-(2H-1,2,3-triazol-2-yl)pyridin-3-yl)-3-(7-((cyclopropylmethyl)(methyl)amino)-2-methylthiazolo[5,4-b]pyridin-6-yl)urea], the IC50 lay within 1 to 100 nM in assay [1] and 26 to 100 nM in the assay on OCI-Ly-10 cells.

Turning to `COCCN(c1c(NC(=O)Nc2cnc(-n3nccn3)c(C(F)(F)F)c2)cnc2sc(C)nc12)C1CC1` [Compound 69, 1-(6-(2H-1,2,3-Triazol-2-yl)-5-(trifluoromethyl)pyridin-3-yl)-3-(7-(cyclopropyl (2-methoxyethyl)amino)-2-methylthiazolo[5,4-b]pyridin-6-yl)urea], the concentration for half-maximal inhibition (IC50) in assay [1] was in the range of 1 to 100 nM; in the assay with OCI-Ly-10 cells it was 101 to 250 nM. For `COC(c1c(NC(=O)Nc2cnc(-n3nccn3)c(Cl)c2)cnc2sc(C)nc12)C(C)C` (centres unmarked) [Compound 79a, 1-(5-Chloro-6-(2H-1,2,3-triazol-2-yl)pyridin-3-yl)-3-(7-(1-methoxy-2-methylpropyl)-2-methylthiazolo[5,4-b]pyridin-6-yl)urea] the same measures were 101 to 500 nM and 101 to 250 nM. For `CCC(c1c(NC(=O)Nc2cnc(-n3nccn3)c(C(F)(F)F)c2)cnc2sc(C)nc12)N(C)C` (centres unmarked) [Compound 75a, 1-(6-(2H-1,2,3-Triazol-2-yl)-5-(trifluoromethyl)pyridin-3-yl)-3-(7-(1-(dimethylamino)propyl)-2-methylthiazolo[5,4-b]pyridin-6-yl)urea], in that order: 101 to 500 nM and 501 to 1500 nM. For `CCOc1nc(-n2nccn2)c(C(F)(F)F)cc1NC(=O)Nc1cnc2sc(C)nc2c1C(C)OC` (single isomer, unassigned) [Compound 221, (S) or (R)-1-(2-ethoxy-6-(2H-1,2,3-triazol-2-yl)-5-(trifluoromethyl)pyridin-3-yl)-3-(7-(1-methoxyethyl)-2-methylthiazolo[5,4-b]pyridin-6-yl)urea] the same measures were 1 to 100 nM and 26 to 100 nM.

For the molecule `Cc1nc2c(C3CC3)c(NC(=O)Nc3cnc(-n4ccnn4)c(Cl)c3)cnc2s1` [Compound 61, 1-(5-Chloro-6-(1H-1,2,3-triazol-1-yl)pyridin-3-yl)-3-(7-cyclopropyl-2-methylthiazolo[5,4-b]pyridin-6-yl)urea], the IC50 in the assay on OCI-Ly-10 cells fell in the range of 501 to 1500 nM. `Cc1nc2c(C(C3CC3)N(C)C)c(NC(=O)Nc3cnc(-n4nccn4)c(C(F)(F)F)c3)cnc2s1` (centres unmarked) [Compound 76a, 1-(6-(2H-1,2,3-Triazol-2-yl)-5-(trifluoromethyl)pyridin-3-yl)-3-(7-(cyclopropyl(dimethylamino)methyl)-2-methylthiazolo[5,4-b]pyridin-6-yl)urea]: in the assay on OCI-Ly-10 cells, the IC50 fell in the range of 101 to 250 nM. As to `COC(c1c(NC(=O)Nc2cnc(-n3nccn3)c(Cl)c2)cnc2sc(C)nc12)C1CCC1` (centres unmarked) [Compound 225b, 1-(5-Chloro-6-(2H-1,2,3-triazol-2-yl)pyridin-3-yl)-3-(7-(cyclobutyl(methoxy)methyl)-2-methylthiazolo[5,4-b]pyridin-6-yl)urea], the values for the IC50 (in assay [1]; in the assay on OCI-Ly-10 cells) were 1 to 100 nM and 26 to 100 nM, respectively. For `COC(C)c1c(NC(=O)Nc2ccc(-c3nnco3)c(Cl)c2)cnc2sc(C)nc12` (single isomer, unassigned) [Compound 203b, (S) or (R)-1-(3-Chloro-4-(1,3,4-oxadiazol-2-yl)phenyl)-3-(7-(1-methoxyethyl)-2-methylthiazolo[5,4-b]pyridin-6-yl)urea], in that order: 1 to 100 nM and 26 to 100 nM. Take `COC(c1ccc(F)cc1)c1c(NC(=O)Nc2cnc(-n3nccn3)c(C(F)(F)F)c2)cnc2sc(C)nc12` (centres unmarked) [Compound 85b, 1-(6-(2H-1,2,3-Triazol-2-yl)-5-(trifluoromethyl)pyridin-3-yl)-3-(7-((4-fluorophenyl)(methoxy)methyl)-2-methylthiazolo[5,4-b]pyridin-6-yl)urea]: the IC50 in assay [1] was 1 to 100 nM; in the assay on OCI-Ly-10 cells, 251 to 500 nM. As to `COCCN(C)c1c(NC(=O)Nc2cnc(OC)c(Cl)c2)cnc2sc(C)nc12` [Compound 45, 1-(5-Chloro-6-methoxypyridin-3-yl)-3-(7-((2-methoxyethyl)(methyl)amino)-2-methylthiazolo[5,4-b]pyridin-6-yl)urea], in the assay on OCI-Ly-10 cells, the IC50 is 501 to 1500 nM. `COc1nc(-n2nccn2)c(C(F)(F)F)cc1NC(=O)Nc1cnc2sc(C)nc2c1C(OC)C(C)C` (centres unmarked) [Compound 80a, 1-(7-(1-Methoxy-2-methylpropyl)-2-methylthiazolo[5,4-b]pyridin-6-yl)-3-(2-methoxy-6-(2H-1,2,3-triazol-2-yl)-5-(trifluoromethyl)pyridin-3-yl)urea]: the IC50 lay within 1 to 100 nM in assay [1] and 26 to 100 nM in the assay on OCI-Ly-10 cells.

For the molecule `COCC1CCCN(c2c(NC(=O)Nc3cnc(OC)c(Cl)c3)cnc3sc(C)nc23)C1` (single isomer, unassigned) [Compound 51b, 1-(5-chloro-6-methoxypyridin-3-yl)-3-(7-(3-(methoxymethyl)piperidin-1-yl)-2-methylthiazolo[5,4-b]pyridin-6-yl)urea], the IC50 with OCI-Ly-10 cells lay in the range of 501 to 1500 nM. As to `COC(C)c1c(NC(=O)Nc2ccc(-n3nccn3)c(C#N)c2)cnc2sc(C)nc12` (single isomer, unassigned) [Compound 208b, (S) or (R)-1-(3-Cyano-4-(2H-1,2,3-triazol-2-yl)phenyl)-3-(7-(1-methoxyethyl)-2-methylthiazolo[5,4-b]pyridin-6-yl)urea], in the assay with OCI-Ly-10 cells, the IC50 is 101 to 250 nM. As to `COCCc1c(NC(=O)Nc2cnc(OC)c(Cl)c2)cnc2sc(C)nc12` [Compound 33, 1-(5-Chloro-6-methoxypyridin-3-yl)-3-(7-(2-methoxyethyl)-2-methylthiazolo[5,4-b]pyridin-6-yl)urea], the IC50 in the assay with OCI-Ly-10 cells was in the range of 501 to 1500 nM. Still for that read-out and setting: the figure for `COc1nc(-n2ccnn2)c(Cl)cc1NC(=O)Nc1cnc2sc(C)nc2c1C(C)OC` (single isomer, unassigned) [Compound 91b, 1-(5-Chloro-2-methoxy-6-(1H-1,2,3-triazol-1-yl)pyridin-3-yl)-3-(7-(1-methoxyethyl)-2-methylthiazolo[5,4-b]pyridin-6-yl)urea] is 26 to 100 nM. `Cc1nc2c(C(C)N(C)C)c(NC(=O)Nc3cnc(-n4nccn4)c(C(F)(F)F)c3)cnc2s1` (single isomer, unassigned) [Compound 74b, 1-(6-(2H-1,2,3-Triazol-2-yl)-5-(trifluoromethyl)pyridin-3-yl)-3-(7-(1-(dimethylsmino)ethyl)-2-methylthiazolo[5,4-b]pyridin-6-yl)urea]: the IC50 in assay [1] was 1 to 100 nM; on full length MALT1 enzyme it was 1 to 50 nM. Regarding `COCC(CN(C)c1c(NC(=O)Nc2cnc(-n3nccn3)c(Cl)c2)cnc2sc(C)nc12)OC` (centres unmarked) [Compound 43, 1-(5-Chloro-6-(2H-1,2,3-triazol-2-yl)pyridin-3-yl)-3-(7-((2,3-dimethoxypropyl)(methyl)amino)-2-methylthiazolo[5,4-b]pyridin-6-yl)urea], the IC50 in the assay with OCI-Ly-10 cells is 26 to 100 nM. As for `COc1nc(-n2nccn2)c(C(F)(F)F)cc1NC(=O)Nc1cnc2sc(C)nc2c1C(C)OC` (single isomer, unassigned) [Compound 88b, 1-(2-Methoxy-6-(2H-1,2,3-triazol-2-yl)-5-(trifluoromethyl)pyridin-3-yl)-3-(7-(1-methoxyethyl)-2-methylthiazolo[5,4-b]pyridin-6-yl)urea], the IC50 in assay [1] lay in the range of 1 to 100 nM; on full length MALT1 enzyme, 1 to 50 nM.
